Source: publication PMC9920298, “Coronavirus Inhibitors Targeting nsp16” (Molecules, 2023)

Tests used:
[1] = biological target: GST-NSP16 SARS-CoV-1 (Severe acute respiratory syndrome coronavirus, UniProt P0C6X7); experiment: biochemical; type: binding
[2] = biological target: GST-NSP16 SARS-CoV-2 (Severe acute respiratory syndrome coronavirus 2, UniProt P0DTD1); experiment: biochemical; type: binding
[3] = biological target: GST-NSP16 MERS-CoV (Middle East respiratory syndrome-related coronavirus, UniProt K9N7C7); experiment: biochemical; type: binding
Sequence of GST-NSP16 MERS-CoV (K9N7C7 6776-7078 limits assumed): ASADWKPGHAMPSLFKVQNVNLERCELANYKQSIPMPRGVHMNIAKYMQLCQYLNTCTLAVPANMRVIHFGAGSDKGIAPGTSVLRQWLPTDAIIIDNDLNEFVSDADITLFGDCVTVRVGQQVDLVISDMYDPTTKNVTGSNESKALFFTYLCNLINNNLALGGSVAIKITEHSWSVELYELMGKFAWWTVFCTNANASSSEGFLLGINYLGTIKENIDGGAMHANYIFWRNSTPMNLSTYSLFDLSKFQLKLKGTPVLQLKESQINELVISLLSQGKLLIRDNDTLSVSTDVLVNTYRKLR

[4] = Cell viability (resazurin) assay in normal lung fibroblasts; settings: human, MRC-5 lung fibroblasts

Cc1ccc2ccccc2c1COc1ccc2c(-c3cc4ccccc4oc3=O)cc(=O)oc2c1 [ZINC2121012, 7′-[(2-methylnaphthalen-1-yl)methoxy]-2H,2′H-3,4′-bichromene-2,2′-dione]
Binding to SARS-CoV-1 nsp16 by MST (in words) [1]: bound to neither SARS-CoV-1 nor MERS-CoV | Binding to SARS-CoV-2 nsp16 by MST (in words) [2]: strong binding | Kd [2]: 23.1 ± 1.05 µM | Binding to MERS-CoV nsp16 by MST (in words) [3]: bound to neither SARS-CoV-1 nor MERS-CoV

O=c1cc(-c2cc3ccccc3oc2=O)c2ccc(OCc3cccc4ccccc34)cc2o1 [ZINC2129028, 7′-(naphthalen-1-ylmethoxy)-2H,2′H-3,4′-bichromene-2,2′-dione]
Kd [1]: 56.4 ± 1.85 µM | Binding to SARS-CoV-2 nsp16 by MST (in words) [2]: strong binding | Kd [2]: 60 ± 2.53 µM | Kd [3]: 48.1 ± 4.12 µM | CC50 at 72 h [4]: 18.5 ± 0.66 µM

COc1cccc2c(-c3cc4ccc(OCc5ccc6ccccc6c5)cc4oc3=O)cc(=O)oc12 [ZINC12880820, 8′-methoxy-7-[(naphthalen-2-yl)methoxy]-2H,2′H-[3,4′-bichromene]-2,2′-dione]
Kd [1]: > 100 µM | Binding to SARS-CoV-2 nsp16 by MST (in words) [2]: strong binding | Kd [2]: 29.1 ± 2.86 µM | Kd [3]: 36.4 ± 1.12 µM
